In patent publication US7129230B2, “Method and product for treating cancer in pets” (Nestec S.A., priority 2001, dated 2006):
“Also recorded” adds a separate entry of the source. Like-named read-outs stand apart in the source and are kept apart here.

Assays:
[1] = system: PTHrP production in human squamous cell lines; conditions: cited from earlier work
osteosarcoma cell lines = conditions: four canine osteosarcoma cell lines; cited from earlier work
[2] = system: human prostate cancer cell line; conditions: cited from earlier work
[3] = system: thyroid anaplastic carcinoma cell lines; conditions: four thyroid anaplastic carcinoma cell lines; cited from earlier work
[4] = system: PTHrP production in SCC 2/88 cells; conditions: Merryman et al 1993, cited from earlier work
[5] = system: murine squamous cell carcinoma (SCC) tumor model; conditions: in vitro and in vivo; cited from earlier work
SCC 2/88 cells = assay: Growth of SCC 2/88 cells by fluorescence DNA concentration analysis; assay type: cell-based, canine; conditions: three-day treatment
Excerpt: Cell culture. […] Each experiment was run in triplicate.

[6] = system: TGF-β mRNA in SCC 2/88 cells; assay: Northern blot analysis of TGF-β mRNA expression in SCC 2/88 cells; assay type: cell-based, canine; conditions: 10^−7 M, 0, 3, 6, 12 and 24 hrs
[7] = system: involucrin in SCC 2/88 cells; assay: Cell differentiation: involucrin by SDS-PAGE and Western blot in SCC 2/88 cells; assay type: cell-based, canine; conditions: post-confluent cells, up to 7 days; for involucrin expression (anti-involucrin reactive bands) compared to vehicle: 10^−7 M; for involucrin expression (anti-involucrin reactive bands): 10^−9 M
Experimental: Cell differentiation. Involucrin was extracted from cultured SCC 2/88 cells grown in 175 cm2 culture flasks (Becton Dickinson, Franklin Lakes, N.J.) for one week. Post confluent cells were treated with either vehicle, 1,25(OH)2D3, EB 1089, or analog V at concentrations 10^−7 M and 10^−9 M for up to 7 days. Cells were washed and released from the culture flask with phosphate buffered saline containing 20 mM EDTA. Cells were disrupted with a Branson sonifier (Branson Ultrasonic Corporation, Danbury, Conn.) at a setting of 6 for 3×30 seconds and centrifuged at 100,000 G for 30 minutes at 10° C. The supernatant (cytosol) was made 10% in glycerol and 62.5 mM in Tris-HCl (pH 6.8) and heated for 10 minutes at 100° C. The denatured proteins were removed by centrifugation at 15,000 G for 15 minutes. Involucrin in the supernatant was collected stored at −70° C. until Western blot analysis was performed.
Extracted proteins (20 μg) were separated by electrophoresis through 7.5 % sodium dodecyl sulfate (SDS)-polyacrylamide gel, and transferred to nitrocellulose membrane with use of a semi-dry transferred technique (Bio-Rad laboratories, Hercules, Calif.). The membrane was then blocked in blocking solution (10% dry milk, 0.05% Tween 20 in phosphate buffered saline) overnight at 4° C. The preblocked membrane was incubated in mouse monoclonal antibody against involucrin (Research Diagnotics Inc., Flanders, N.J.) 1:500 for an hour and extensively washed in PBS (pH 7.4) containing 0.05% Tween 20. The blot was then incubated in goat anti-mouse IgG (horseradish peroxidase) (Bio-Rad laboratories, Hercules, Calif.) 1:500 for an hour. After further washing in phosphate buffered saline containing 0.05% Tween 20, the blot was developed for 1 minute in the LumiGLO Chemiluminescent substrate (Kirkegaard and Perry laboratories, Gaithersburg, Md.), and then exposed to x-ray film for 1–5 seconds. After exposure, the membrane was stripped and incubated with mouse monoclonal anti-β-actin (Sigma, Saint Louis, Mo.) to normalize for protein loading. AlphaImager™ Alpha Innotech Corporation, San Leandro) measured the density of involucrin bands.

[8] = system: human and rat liver cancer cell lines; conditions: cited from earlier work
[9] = system: PTHrP mRNA in SCC 2/88 cells; assay: Northern blot analysis of PTHrP mRNA expression in SCC 2/88 cells; assay type: cell-based, canine

| Compound | cell growth [3] | PTHrP production in SCC 2/88 cells [4] | growth of SCC 2/88 cells (concentration of DNA) (SCC 2/88 cells; 10^−7 M) | involucrin expression (anti-involucrin reactive bands) compared to vehicle [7] | involucrin expression (anti-involucrin reactive bands) [7] | growth of SCC 2/88 cells (concentration of DNA) (SCC 2/88 cells; 10^−9 M) | further results |
| --- | --- | --- | --- | --- | --- | --- | --- |
| C=C1/C(=C\C=C2/CCC[C@]3(C)[C@@H]([C@H](C)CCCC(C)(C)O)CC[C@@H]23)C[C@@H](O)C[C@@H]1O [1,25(OH)2D3] | diphasic cell growth in three of the four cell lines | promote PTHrP production | inhibit cell proliferation; also recorded: significantly reduced the concentration of DNA | diminished involucrin expression | diminished involucrin expression |  | PTHrP production [1]: inhibits PTHrP production; alkaline phosphatase activity (osteosarcoma cell lines): increases alkaline phosphatase activity in one cell line; osteocalcin production (osteosarcoma cell lines): osteocalcin production in two lines; type I collagen production (osteosarcoma cell lines): type I collagen production in three lines; cell growth and differentiation [2]: inhibits cell growth and promotes differentiation in a dose-dependent manner; PTHrP production in SCC 2/88 cells ([4]; listed as 1,25-(OH)2D3): stimulates production of parathyroid hormone-related protein; antitumor effects [5]: significant antitumor effects; TGF-β mRNA expression compared to vehicle-treated control [6]: did not differ significantly; anti-proliferative activity [8]: anti-proliferative activity in some human and rat liver cancer cell lines |
| C=C1/C(=C\C=C2/CCC[C@]3(C)[C@@H]([C@H](C)OCCC(C)(C)O)CC[C@@H]23)C[C@@H](O)C[C@@H]1O [22-oxacalcitriol] | dose-dependent inhibition of cell growth in all four of the cell lines |  |  |  |  |  |  |
| C=C1/C(=C\C=C2/CCC[C@]3(C)[C@@H]([C@H](C)/C=C/C=C/C(O)(CC)CC)CC[C@@H]23)C[C@@H](O)C[C@@H]1O [EB 1089, 22,24-diene-24a,26a,27a-trihomo-1α,25-dihydroxyvitamin D3] |  | promote PTHrP production | inhibit cell proliferation; also recorded: significantly reduced the concentration of DNA; also recorded: significantly diminished cell growth | more weakly defined than that of the vehicle-treated control; also recorded: diminished involucrin expression; also recorded: weak or substantially absent anti-involucrin reactive bands | diminished involucrin expression; also recorded: diminished levels of involucrin | inhibits cell growth significantly; also recorded: significantly reduced the concentration of DNA; also recorded: reduced cell growth at a lower confidence level |  |
| C=C1C(=CC=C2CCCC3(C)C(C(C)CC#CC(C)(C)O)=CCC23)CC(O)CC1O (stereo not drawn) [analog V, 1,25-dihydroxy-16-ene-23-yne-vitamin D] |  | promote PTHrP production | inhibit cell proliferation; also recorded: significantly reduced the concentration of DNA; also recorded: significantly diminished cell growth | more weakly defined than that of the vehicle-treated control; also recorded: diminished involucrin expression; also recorded: weak or substantially absent anti-involucrin reactive bands | more intense than those of the other treated groups; also recorded: stronger anti-involucrin reactive band | no significant inhibition of cell growth |  |
| TGF-β |  |  |  |  |  |  | increase in PTHrP mRNA compared to vehicle-treated control ([9]; TGF-β 1.5 ng/mL, 6, 12 and 24 hr): 5- to 20 fold; increase in PTHrP mRNA compared with vehicle-treated control ([9]; TGF-β, after 24 hr): 2- to 20 fold |
